Data published in patent publication US20050049278A1, “Benzo[1,3]dioxole compounds, pharmaceutical compositions thereof, and processes of making and using the same” (priority 2003, published 2005).
Where two headings read alike, the source gives them in different places.

Columns and labels:
[1] = test system: PC3 (prostate adenocarcinoma); test: Cell viability (cell proliferation assay), PC3; format: cell-based; settings: 48 to 72 hr exposure
Description: (§1) HEK293 cells were seeded into each well of a 96-well plate (5000 cells/well) and incubated overnight to allow the cells to attach. The culture media was removed and replaced with 100 μl of phenol red-free media containing the compounds 5a, 5a,b, and 9a at various concentrations. The cells were allowed to grow in the presence of the compounds for 48 hrs. At the end of the treatment, 20 μl of CellTiter 96 Aqueous One Solution reagent was added directly into each well, and the cells were incubated at 37° C. for 2 hrs. This reagent converts to a form that absorbs light at 490 nm by living cells. Thus, absorbance at 490 nm is proportional to the number of viable cells. The 490 nm absorbance was measured on a BioRad plate reader. Control wells containing no cells were included in this assay to correct for background absorbance.
(§2) The effect of compound 9a on the viability of cancer cell lines as well as dividing and non-dividing mouse Swiss3T3 cells was studied.
(§3) In particular, the cell proliferation assay, as described in Example 15, was used to test the effect of a 48 to 72 hr exposure of these cell lines to compound 9a at various concentrations.

[2] = test system: SW480 (colorectal adenocarcinoma); test: Cell viability (cell proliferation assay), SW480; format: cell-based; settings: Homo sapiens, 48 to 72 hr exposure
Description: as §1, §2, §3

HEK293 cells [3] = test: Cell cycle analysis by FACS of HEK293 cells; format: cell-based
Description: Fluorescence-activated cell sorting (FACS) analysis was used to examine the cell cycle state when the cells were incubated with compounds of formula (I) as well as several control compounds, including DMSO, noscapine (a known G2/M inhibitor), and colchicine (a known G2/M inhibitor).
In particular, HEK293 cells were cultured in DMEM media (Celigro) supplemented with 10% Fetal Bovine Serum (Tissue Culture Biologicals) and 1× Penicillin/Streptomycin/Glutamine (Gibco). The cells were grown at 37° C. with 5% CO2, plated in six-well plates at 2.5×10^6 cells/well, and treated for 16 to 24 hrs with the compounds at the concentrations shown in Table 1, below. The cells were then triturated off the bottom of the wells, washed 1× with PBS, then fixed with 70% ethanol, and stored at 4° C. before staining and FACS analysis.
The DNA content of cells was determined using a FacsVantage SE flow cytometry system (Becton Dickinson, San Jose, Calif.) and a Cellular DNA Flow Cytometric Analysis Kit (Roche Applied Science, Indianapolis, Ind.). Cell cycle analysis was performed using Cylchred 1.0.2 software.

[4] = test system: OVCAR-4 (ovarian adenocarcinoma); test: Cell viability (cell proliferation assay), OVCAR-4; format: cell-based; settings: Homo sapiens, 48 to 72 hr exposure
Description: as §1, §2, §3

H4 (glioma) = test: Cell viability (cell proliferation assay), H4; format: cell-based; settings: 48 to 72 hr exposure
Description: as §1, §2, §3

[5] = test system: HOP-18 (non-small cell lung carcinoma); test: Cell viability (cell proliferation assay), HOP-18; format: cell-based; settings: Homo sapiens, 48 to 72 hr exposure
Description: as §1, §2, §3

[6] = test system: Swiss 3T3 dividing fibroblast; test: Cell viability (cell proliferation assay), dividing Swiss 3T3; format: cell-based; settings: Mus musculus, 48 to 72 hr exposure
Description: as §1, §2, §3

[7] = test system: HT29 (colorectal adenocarcinoma); test: Cell viability (cell proliferation assay), HT29; format: cell-based; settings: Homo sapiens, HT-29, 48 to 72 hr exposure
Description: as §1, §2, §3

[8] = test system: HCT15 (colorectal adenocarcinoma); test: Cell viability (cell proliferation assay), HCT15; format: cell-based; settings: Homo sapiens, HCT-15, 48 to 72 hr exposure
Description: as §1, §2, §3

[9] = test system: HeLa (cervical adenocarcinoma); test: Cell viability (cell proliferation assay), HeLa; format: cell-based; settings: Homo sapiens, 48 to 72 hr exposure
Description: as §1, §2, §3

[10] = test system: HTS-tubulin (90% tubulin plus 10% microtubule associated proteins); test: Microtubule polymerization assay (turbidity at 340 nm); format: biochemical; settings: absorbance at 340 nm, 30 minutes, 37° C., FIG. 3
Description: Microtubule polymerization assays were performed to determine if compounds, such as compound 9a, cause G2/M cell cycle arrest by affecting microtubule dynamics. A microtubule polymerization assay was performed that takes advantage of the observation that there is an increase in turbidity that can be measured at 340 nm as tubulin heterodimers polymerize to form microtubules. In brief, HTS-tubulin (90% tubulin plus 10% microtubule associated proteins; Cytoskeleton Inc., Denver, Colo.) was resuspended in G-PEM buffer (80 mM Pipes, pH 6.9; 2 mM MgCl2; 0.5 mM EDTA; 1 mM GTP) to 10 mg/ml. This suspension was clarified by centrifugation for 10 min. at 225,000×g. The supernatant was then diluted with G-PEM buffer to 2 mg/ml and 100 μl of this solution was added to the appropriate number of ½-area wells in a 96-well format (Corning). Each compound (10 μl of a 10× final concentration in 10% DMSO) was added to the wells in duplicate and immediately put into a pre-warmed (37° C.) Spectromax 190 plate reader. The absorbance was read at 340 nm immediately (time=0) and every minute thereafter for 30 minutes.
The tubulin mix was incubated in the presence of paclitaxel (a microtubule stabilizing agent), nocodazole (a microtubule destabilizing agent), vehicle control (DMSO), or varying concentrations of compound 9a (FIG. 3).

[11] = test system: A549 (non-small cell lung carcinoma); test: Cell viability (cell proliferation assay), A549; format: cell-based; settings: Homo sapiens, 48 to 72 hr exposure
Description: as §1, §2, §3

[12] = test system: Swiss 3T3 non-dividing fibroblast; test: Cell viability (cell proliferation assay), non-dividing Swiss 3T3; format: cell-based, mouse
Description: as §1, §2, §3

HEK293 cells [13] = test: HEK293 cell viability, CellTiter 96 Aqueous One Solution Cell Proliferation assay; format: cell-based; settings: Homo sapiens, HEK293, 48 h, read-out: EC50
Description: as §1, with “The effect of various doses of compounds 5a, 5a,b, and 9a on the viability of HEK293 cells was examined using the CellTiter 96 Aqueous One Solution Cell Proliferation assay (Promega). The HEK293 cells were cultured in DMEM media (Cellgro) or phenol red-free DMEM (Gibco) supplemented with 10% Fetal Bovine Serum (Tissue Culture Biologicals) and 1× Penicillin/Streptomycin/Glutamine (Gibco). The cells were grown at 37° C. with 5% CO2. HEK293” for “HEK293”

U937 (lymphoma) = test: Cell viability (cell proliferation assay), U937; format: cell-based; settings: Homo sapiens, U-937, 48 to 72 hr exposure
Description: as §1, §2, §3

HL-60 (leukemia) = test: Cell viability (cell proliferation assay), HL-60; format: cell-based; settings: Homo sapiens, 48 to 72 hr exposure
Description: as §1, §2, §3

[14] = test system: NCl/ADR (breast adenocarcinoma); test: Cell viability (cell proliferation assay), NCl/ADR; format: cell-based; settings: 48 to 72 hr exposure
Description: as §1, §2, §3

[15] = HEK293, 0.1 μM, treated 16 to 24 hrs

With `COc1ccc2c(c1N)C(=O)O[C@@H]2[C@H]1c2c(cc3c(c2OC)OCO3)CCN1C` [Compound 9a, 7-amino-6-methoxy-3-(4-methoxy-6-methyl-5,6,7,8-tetrahydro-[1,3]dioxolo[4,5-g]isoquinolin-5-yl)-3H-isobenzofuran-1-one] the EC50 [1] was < 100 nM, the EC50 [2] was < 100 nM and the “Percent of Cells in G1” value (HEK293 cells [3]; [15]) was 1%. The “Percent of Cells in G2/M” value (HEK293 cells [3]; [15]) was 92.1%, the “Percent of Cells in S” value (HEK293 cells [3]; [15]) was 6.9% and the “concentration at which activity was observed” value (HEK293 cells [3]; HEK293, G2/M accumulation) was 0.1 µM. The “accumulation of cells in G2/M” value (HEK293 cells [3]; HEK293, concentrations as in Table 1) was ~90%, the EC50 [4] was < 100 nM and the EC50 (H4 (glioma)) was < 50 nM. The EC50 [5] was < 100 nM, the EC50 [6] was < 100 nM and the EC50 [7] was < 100 nM. The EC50 [8] was < 100 nM, the EC50 [9] was < 50 nM and the “effect on microtubule polymerization” value [10] was “dose-dependent decrease of microtubule polymerization”. For the same molecule, the EC50 [11] was < 100 nM, the EC50 ([12]; Mus musculus, Swiss 3T3 non-dividing fibroblast, 48 to 72 hr exposure) was > 50000 nM and the “effect on viability” value ([12]; non-dividing Swiss 3T3 fibroblasts, even at 50 μM) was “no effect was observed”. The EC50 (HEK293 cells [13]) was < 50 nM, the EC50 (HEK293 cells [13]; text summary) was < 1000 nM and the EC50 (U937 (lymphoma)) was < 50 nM. The EC50 (HL-60 (leukemia)) was < 50 nM and the EC50 [14] was < 50 nM.
